Data from US7098169B2, “Herbicide-safener combination based on isoxazoline carboxylate safeners” (Bayer CropScience GmbH, priority 2001, dated 2006).

Assays:
Format in all cases: in vivo
ZEAMA = Zea mays (maize) = test: Post-emergence treatment, safening by (Ib), visual injury score in maize (Table 1)
Procedure: 3.2 Effect of the Herbicide and Effect of the Safener when Applied Pre-Emergence Seeds or rhizome pieces of mono- and dicotyledenous harmful plants and of crop plants are placed in sandy loam soil in plastic pots, covered with soil and cultivated in a greenhouse under good growth conditions. Alternatively, harmful plants encountered in paddy rice cultivation are cultivated in pots where the water level is up to 2 cm above the soil surface. Three weeks after sowing, the test plants are treated at the three-leaf stage. […] In a series of trials the ability of herbicides to be […] by safener (Ib) was evaluated.

[1] = test system: TRZAS, Triticum aestivum (wheat); test: Pre-emergence application of herbicide-safener combination, visual injury score in wheat (Table 2); conditions: application rate 300 g a.i./ha
Procedure: (§1) The damage to the plants is assessed visually on a scale of 0–100% in comparison with control plants: • 0%=no noticeable effect in comparison with the untreated plant • 100%=the treated plant dies off. 3.2 Effect of the Herbicide and Effect of the Safener when Applied Pre-Emergence
(§2) Seeds or rhizome pieces of mono- and dicotyledonous harmful plants and of crop plants are placed in sandy loam soil in plastic pots of a diameter of 9 cm and covered with soil. Alternatively, harmful plants encountered in paddy rice cultivation are cultivated in water-saturated soil, where the amount of water poured into the pots is such that the water level is at the soil surface, or some millimeters above the soil surface. The herbicide/safener active compound combinations according to the invention, formulated in the form of emulsion concentrates, and, in parallel tests, the correspondingly formulated individual active compounds are then applied as emulsions to the surface of the soil cover in various dosages using an amount of water of 300 l/ha (converted), or, in the case of rice, are poured into the irrigation water. After the treatment, the pots are placed in a greenhouse and kept under good growth conditions for the weeds. […]

[2] = test system: HORVS = Hordeum vulgare (barley); test: Pre-emergence application of herbicide-safener combination, visual injury score in barley (Table 3); conditions: application rate 300 g a.i./ha (herbicide alone)
Procedure: as §1, §2

## CCOC(=O)C(Cl)Cc1cc(-n2nc(C)n(C(F)F)c2=O)c(F)cc1Cl (racemic) [(B4-1), ethyl (RS)-2-chloro-3-[2-chloro-5-(4-difluoromethyl-4,5-dihydro-3-methyl-5-oxo-1H-1,2,4-triazol-1-yl)-4-fluorophenyl]propionate]
ZEAMA = Zea mays (maize); application rate 36 g a.i./ha
  % injury to ZEAMA: 11%

## COc1ncc(F)c2nc(S(=O)(=O)Nc3c(F)cccc3F)nn12 [(B1-1), N-(2,6difluorophenyl)-8-fluoro-5-methoxy-1,2,4-triazolo[1,5-c]pyrimidin-2-sulfonamide]
ZEAMA = Zea mays (maize); application rate 10 g a.i./ha
  % injury to ZEAMA: 18%

## CCOc1nc(F)cc2nc(S(=O)(=O)Nc3c(Cl)cccc3C(=O)OC)nn12 [(B1-2), methyl 3-chloro-(5-ethoxy-7-fluoro[1,2,4]triazole-[1,5-c]pyrimidin-2-ylsulfonamido)-benzoate]
ZEAMA = Zea mays (maize); application rate 30 g a.i./ha
  % injury to ZEAMA: 32%

## O=C(O)COc1nc(Cl)c(Cl)cc1Cl [(B2-3), 3,5,6-trichloro-2-pyridyloxyacetic acid]
ZEAMA = Zea mays (maize); application rate 420 g a.i./ha
  % injury to ZEAMA: 22%

## Nc1c(Cl)c(F)nc(OCC(=O)O)c1Cl [(B2-4), 4-amino-3,5-dichloro-6-fluoro-2-pyridyloxyacetic acid]
ZEAMA = Zea mays (maize); application rate 160 g a.i./ha
  % injury to ZEAMA: 9%

## CSc1nnc(C(C)(C)C)c(=O)n1N [(B3-1), 4-amino-6-tert-butyl-4,5-dihydro3-methylthio-1,2,4-triazin-5-one]
ZEAMA = Zea mays (maize); application rate 560 g a.i./ha
  % injury to ZEAMA: 23%

## CCc1cccc(C)c1N(C(=O)CCl)[C@@H](C)COC [(B5-1)]
[1]
  % injury to TRZAS: 70%
[2]
  % injury to HORVS: 15%
